Reference: US12415786B2, “Substituted 2-heteroarylaminobenzenes and the salts thereof and their use as herbicidal agents” (Bayer Aktiengesellschaft, priority 2019, dated 2025)

How the values were obtained:
Type in all cases: in vivo
Amaranthus retroflexus [1] = assay: Herbicidal pre-emergence action (greenhouse pots), AMARE; conditions: 1280 g/ha, visual scoring after about 3 weeks vs untreated controls
Description: (§1) In the examples and tables below, the following abbreviations are used: • Undesired Plants/Weeds: • ABUTH: Abutilon theophrasti • AGSTE: Agrostis tenuis • AMARE Amaranthus retroflexus • ECHCG: Echinochloa crus-galli • LOLRI: Lolium rigidum • MATIN: Matricaria inodora • POAAN: Poa annua • SETVI: Setaria viridis • STEME: Stellaria media A. Herbicidal Early Post-Emergence Action Seeds of mono- and dicotyledonous weed plants were placed in plastic pots in sandy loam soil (doubly sown with one species each of mono- or dicotyledonous weed plants per pot) and covered with soil. The compounds of the invention, formulated in the form of wettable powders (WP) or as emulsion concentrates (EC), were then applied onto the surface of the covering soil as aqueous suspension or emulsion with addition of 0.5% additive at a water application rate of 600 liters per hectare (converted). After the treatment, the pots were placed in a greenhouse and kept under good growth conditions for the test plants. After about 3 weeks, the effect of the preparations was scored visually in comparison with untreated controls as percentages. For example, 100% activity=the plants have died, 0% activity=like untreated control plants. Tables C1-C8 below show the effects of selected compounds of the general formula (I) according to Table 1 above on various harmful plants and an application rate corresponding to 1280 g/ha, which were obtained by the experimental procedure mentioned above.

Echinochloa crus-galli = assay: Herbicidal pre-emergence action (greenhouse pots), ECHCG; conditions: 1280 g/ha, visual scoring after about 3 weeks vs untreated controls
Description: as §1

Stellaria media [2] = assay: Herbicidal pre-emergence action (greenhouse pots), STEME; conditions: 1280 g/ha, visual scoring after about 3 weeks vs untreated controls
Description: as §1

Poa annua [3] = assay: Herbicidal pre-emergence action (greenhouse pots), POAAN; conditions: 1280 g/ha, visual scoring after about 3 weeks vs untreated controls
Description: as §1

Amaranthus retroflexus [4] = assay: Herbicidal post-emergence action (greenhouse pots), AMARE; conditions: 1280 g/ha, visual rating about 3 weeks after treatment vs untreated controls
Description: (§2) In the examples and tables below, the following abbreviations are used: • Undesired Plants/Weeds: • ABUTH: Abutilon theophrasti • AGSTE: Agrostis tenuis • AMARE Amaranthus retroflexus • ECHCG: Echinochloa crus-galli • LOLRI: Lolium rigidum • MATIN: Matricaria inodora • POAAN: Poa annua • SETVI: Setaria viridis • STEME: Stellaria media A. Herbicidal Early Post-Emergence Action Seeds of mono- and dicotyledonous weed plants were placed in plastic pots in sandy loam soil (doubly sown with in each case one species of mono- or dicotyledonous weed plants per pot), covered with soil and cultivated in a greenhouse under controlled growth conditions. 2 to 3 weeks after sowing, the test plants were treated at the one-leaf stage. The compounds of the invention, formulated in the form of wettable powders (WP) or as emulsion concentrates (EC), were applied onto the green parts of the plants as aqueous suspension or emulsion with addition of 0.5% additive at a water application rate of 600 liters per hectare (converted). After the test plants had been kept in the greenhouse under optimum growth conditions for about 3 weeks, the activity of the preparations was rated visually in comparison to untreated controls. For example, 100% activity=the plants have died, 0% activity=like untreated control plants. Tables B1-B8 below show the effects of selected compounds of the general formula (I) according to Table 1 above on various harmful plants and an application rate corresponding to 1280 g/ha, which were obtained by the experimental procedure mentioned above.

Setaria viridis = assay: Herbicidal pre-emergence action (greenhouse pots), SETVI; conditions: 1280 g/ha, visual scoring after about 3 weeks vs untreated controls
Description: as §1

Agrostis tenuis = assay: Herbicidal early post-emergence action (96-well microtiter plates), AGSTE; conditions: 1900 g/ha, scored 9 to 12 days after treatment, 100% = plants have died, 0% = like untreated control plants
Description: (§3) In the examples and tables below, the following abbreviations are used: • Undesired Plants/Weeds: • ABUTH: Abutilon theophrasti • AGSTE: Agrostis tenuis • AMARE Amaranthus retroflexus • ECHCG: Echinochloa crus-galli • LOLRI: Lolium rigidum • MATIN: Matricaria inodora • POAAN: Poa annua • SETVI: Setaria viridis • STEME: Stellaria media A. Herbicidal Early Post-Emergence Action Seeds of monocotyledonous and dicotyledonous weed plants were placed in 96-well microtiter plates in quartz sand and grown in a climatized chamber under controlled growth conditions. 5 to 7 days after sowing, the test plants were treated at the cotyledon stage. The compounds according to the invention, formulated in the form of emulsion concentrates (EC), were applied with a water application rate of the equivalent of 2200 liters per hectare. After the test plants had been left to stand in the climatized chamber for 9 to 12 days under optimum growth conditions, the effect of the preparations was scored visually in comparison to untreated controls. Here, for example, 100% activity=the plants have died, 0% activity=like untreated control plants. Tables A1 to A2 below show the effects of selected compounds of the general formula (I) according to Table 1 above on various harmful plants and an application rate corresponding to 1900 g/ha, which were obtained by the experimental procedure mentioned above.

Poa annua [5] = assay: Herbicidal early post-emergence action (96-well microtiter plates), POAAN; conditions: 1900 g/ha, scored 9 to 12 days after treatment, 100% = plants have died, 0% = like untreated control plants
Description: as §3

Stellaria media [6] = assay: Herbicidal post-emergence action (greenhouse pots), STEME; conditions: 1280 g/ha, visual rating about 3 weeks after treatment vs untreated controls
Description: as §2

Abutilon theophrasti = assay: Herbicidal post-emergence action (greenhouse pots), ABUTH; conditions: 1280 g/ha, visual rating about 3 weeks after treatment vs untreated controls
Description: as §2

Matricaria inodora = assay: Herbicidal pre-emergence action (greenhouse pots), MATIN; conditions: 1280 g/ha, visual scoring after about 3 weeks vs untreated controls
Description: as §1

SMILES | herbicidal activity AMARE (Amaranthus retroflexus [1]) | herbicidal activity ECHCG (Echinochloa crus-galli) | herbicidal activity STEME (Stellaria media [2]) | herbicidal activity POAAN (Poa annua [3]) | herbicidal activity AMARE (Amaranthus retroflexus [4]) | herbicidal activity SETVI (Setaria viridis) | AGSTE (herbicidal activity, scored visually in comparison to untreated controls) (Agrostis tenuis) | POAAN (herbicidal activity, scored visually in comparison to untreated controls) (Poa annua [5]) | herbicidal activity STEME (Stellaria media [6]) | herbicidal activity ABUTH (Abutilon theophrasti) | herbicidal activity MATIN (Matricaria inodora)
N#Cc1cccc(Nc2ncc(Cl)cn2)c1Oc1cccc(F)c1 [Example 1-285] | 100% | 90% | 100% | 100% | 100% | 100% | – | – | – | – | –
Clc1cnc(Nc2cccc(Cl)c2Oc2ccccc2)nc1 [Example 1-340] | 100% | – | 90% | 100% | 100% | 100% | 80% | 100% | 100% | 90% | –
N#Cc1cccc(Nc2ncc(F)cn2)c1Oc1ccc(F)cc1Cl [Example 1-274] | 90% | – | 90% | 90% | 100% | – | 80% | 100% | 90% | – | –
COc1cccc(Oc2c(C#N)cccc2Nc2ncc(Cl)cn2)c1 [Example 1-300] | 90% | – | 100% | – | 100% | – | 80% | – | – | – | 90%
N#Cc1cccc(Nc2ncccn2)c1Oc1ccc(F)cc1F [Example 1-251] | 100% | – | 100% | – | 100% | 90% | 80% | 80% | – | – | 100%
N#Cc1cccc(Nc2ncccn2)c1Oc1ccc(Cl)cc1 [Example 1-250] | 100% | – | 100% | 100% | 100% | 90% | 80% | 80% | 90% | – | –
N#Cc1cccc(Nc2ccc(F)cn2)c1Oc1ccc(F)cc1 [Example 1-106] | 100% | – | – | 100% | 100% | – | 100% | 100% | 90% | – | –
N#Cc1cccc(Nc2ncc(Cl)cn2)c1Oc1ccc(F)cc1Cl [Example 1-293] | 100% | – | 90% | – | 100% | 100% | 80% | 80% | – | 90% | –
N#Cc1cccc(Nc2ncccn2)c1Oc1ccc(F)cc1Cl [Example 1-255] | 100% | – | 100% | – | 100% | – | 80% | 80% | 100% | – | –
Clc1cnc(Nc2ccccc2Oc2cccnc2)nc1 [Example 3-49] | – | – | – | – | 100% | – | 80% | – | – | 90% | –
COc1cnc(Nc2cccc(C#N)c2Oc2ccc(F)cc2)nc1 [Example 1-312] | 100% | – | 100% | 100% | 100% | 90% | 100% | 100% | 100% | 100% | 100%
N#Cc1ccc(Oc2ccccc2Nc2ncc(Cl)cn2)cc1 [Example 1-339] | – | – | – | – | 100% | – | 100% | 100% | 100% | – | –
N#Cc1cccc(Nc2ncc(OC(F)F)cn2)c1Oc1ccc(F)cc1 [Example 1-314] | – | – | – | – | 100% | 100% | 100% | 80% | 100% | 90% | –
N#Cc1cnc(Nc2cccc(C#N)c2Oc2ccc(F)c(F)c2)nc1 [Example 1-305] | 100% | – | 100% | 100% | 100% | 90% | 100% | 100% | 100% | – | 100%
N#Cc1cccc(Nc2ccc(F)cn2)c1Oc1ccc(F)c(F)c1 [Example 1-111] | 100% | – | 100% | – | 100% | 90% | 100% | 100% | 90% | 90% | 90%
N#Cc1cccc(Nc2ccccn2)c1Oc1ccc(F)cc1 [Example 1-88] | 100% | – | – | – | – | 90% | 100% | 80% | 100% | – | –
N#Cc1cccc(Nc2ncccn2)c1Oc1ccc(Cl)cc1F [Example 1-256] | 100% | – | 100% | 100% | 100% | 90% | 80% | 80% | – | – | 90%
N#Cc1cnc(Nc2cccc(C#N)c2Oc2ccc(F)cc2)nc1 [Example 1-304] | 100% | – | 100% | 100% | 100% | 100% | 100% | 100% | – | – | 100%
